Measurements: paper PMC11601441 (bioRxiv, 2024)

What was measured:
Format in all cases: cell-based
mouse GPR17 (mGPR17) = mouse GPR17 (mGPR17) (Mus musculus, UniProt Q6NS65); experiment: calcium flux in GLUTag cells expressing mGPR17
[1] = target: human GPR17 long isoform V96M (hGPR17L-V96M) (Homo sapiens, UniProt Q13304, V96M); experiment: calcium flux in GLUTag cells expressing hGPR17L-V96M
[2] = target: human GPR17 long isoform (hGPR17L) (Homo sapiens, UniProt Q13304)
Sequence of human GPR17 long isoform (hGPR17L) (Q13304 whole entry, canonical isoform): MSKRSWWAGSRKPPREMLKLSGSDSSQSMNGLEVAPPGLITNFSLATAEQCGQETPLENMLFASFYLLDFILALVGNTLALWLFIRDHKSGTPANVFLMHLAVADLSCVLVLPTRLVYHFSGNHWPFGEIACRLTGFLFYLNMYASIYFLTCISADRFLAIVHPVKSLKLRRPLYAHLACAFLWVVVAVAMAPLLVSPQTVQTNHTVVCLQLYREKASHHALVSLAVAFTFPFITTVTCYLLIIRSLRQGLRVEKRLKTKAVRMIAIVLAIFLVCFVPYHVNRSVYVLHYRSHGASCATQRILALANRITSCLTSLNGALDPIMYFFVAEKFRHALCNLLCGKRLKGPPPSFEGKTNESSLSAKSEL

Sequence of mouse GPR17 (mGPR17) (Q6NS65 whole entry, canonical isoform): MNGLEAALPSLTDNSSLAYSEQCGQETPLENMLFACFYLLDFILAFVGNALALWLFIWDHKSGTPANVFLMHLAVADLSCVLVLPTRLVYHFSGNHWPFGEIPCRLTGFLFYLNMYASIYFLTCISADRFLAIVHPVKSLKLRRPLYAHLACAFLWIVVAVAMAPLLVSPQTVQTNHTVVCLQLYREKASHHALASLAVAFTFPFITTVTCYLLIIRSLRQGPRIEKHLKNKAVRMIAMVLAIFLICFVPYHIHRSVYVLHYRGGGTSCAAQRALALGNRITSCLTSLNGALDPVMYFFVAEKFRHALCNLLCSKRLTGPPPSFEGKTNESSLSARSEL
Sequence of human GPR17 long isoform V96M (hGPR17L-V96M) (Q13304 whole entry V96M, canonical isoform): as the sequence (Q13304 whole entry, canonical isoform) above, with V96M counted along it

O=C(O)CCc1c(C(=O)O)[nH]c2cc(Cl)cc(Cl)c12 [MDL29,951]
EC50 (mouse GPR17 (mGPR17)): 680 nM | EC50 [1]: 580 nM | IC50 [2]: 29 nM
